{"source": "patent US5663145A", "about": "“Products for administering an initial high dose of Cetrorelix and producing a combination package for use when treating diseases” (ASTA Medica Aktiengesellschaft, priority 1993, dated 1997)", "key": {"[1]": {"system": "DMBA-induced mammary cancers", "assay": "DMBA-induced mammary cancers in rats", "assay_type": "in vivo", "settings": "initial high dose and a further dose which is not active when administered on its own"}, "[2]": {"system": "LH, FSH and testosterone", "assay": "trial in humans over three weeks, initial dose plus maintenance doses, suppression of LH, FSH and testosterone", "assay_type": "in vivo", "description": "This surprising observation in animals was also confirmed in humans. […] The trial was performed over three weeks."}, "[3]": {"system": "hormone concentration", "assay": "clinical trials, daily dose of 10 mg, suppression of hormone concentration", "assay_type": "in vivo, human", "settings": "daily dose of 10 mg", "excerpt": "This high daily dose cannot be applied in slow-release forms which are intended to act over a long period of time, for example several months. The depot injected under the skin would be too voluminous and would no longer be acceptable. Therefore there is the object of providing a product for reliable and acceptable application."}}, "note": "Non-standard residues stand in square brackets, D forms with d. Residues, ends and D or L forms follow the SMILES beside them. dPhe(4-Cl) = N[C@H](Cc1ccc(Cl)cc1)C(=O)O; d2Nal = N[C@H](Cc1ccc2ccccc2c1)C(=O)O; dCit = NC(=O)NCCC[C@@H](N)C(=O)O; d3Pal = N[C@H](Cc1cccnc1)C(=O)O", "data": [{"smiles": "CC(=O)N[C@H](Cc1ccc2ccccc2c1)C(=O)N[C@H](Cc1ccc(Cl)cc1)C(=O)N[C@H](Cc1cccnc1)C(=O)N[C@@H](CO)C(=O)N[C@@H](Cc1ccc(O)cc1)C(=O)N[C@H](CCCNC(N)=O)C(=O)N[C@@H](CC(C)C)C(=O)N[C@@H](CCCNC(=N)N)C(=O)N1CCC[C@H]1C(=O)N[C@H](C)C(N)=O", "note": "[Cetrorelix] (Ac-[d2Nal][dPhe(4-Cl)][d3Pal]SY[dCit]LRP[dA]-NH2)", "values": [{"measurement": "treatment of DMBA-induced mammary cancers", "setting": "[1]", "result": "successful treatment"}, {"measurement": "suppression of LH, FSH and testosterone under maintenance doses after initial dose", "setting": "[2]; after 10 mg initial dose, maintenance 1 mg every 12 hours, 2 mg every 24 hours or 1 mg every 24 hours, three weeks", "result": "suppression of LH, FSH and testosterone was maintained"}, {"measurement": "suppression of LH, FSH and testosterone after initial dose", "setting": "[2]; injection of an initial dose of 10 mg", "result": "led to suppression of LH, FSH and testosterone"}, {"measurement": "suppression of LH, FSH and testosterone with maintenance doses on their own", "setting": "[2]; maintenance doses (1 mg every 12 hours, 2 mg every 24 hours, 1 mg every 24 hours) applied on their own, no initial dose", "result": "suppression of LH, FSH and testosterone is not achieved"}, {"measurement": "suppression of the hormone concentration", "setting": "[3]", "result": "complete suppression of the hormone concentration to castration level"}]}]}
